Measured values from US20110053995A1, “BENZENESULFONANILIDE COMPOUND INHIBITORS OF UREA TRANSPORTERS” (THE REGENTS OF THE UNIVERSITY OF CALIFORNIA, priority 2006, published 2011).
Like-named read-outs stand apart in the source and are kept apart here.

Legend:
[1] = target: T1, UT-B (Homo sapiens, UniProt Q13336); assay: RBC lysis assay, human RBCs; assay type: cell-based
T1 construct: a red blood cell (i.e., erythrocyte), which endogenously expresses the urea transporter UT-B; endogenous in cells; host or cells: human red blood cells (whole venous blood, single donor)
T1 sequence (Q13336 1-389): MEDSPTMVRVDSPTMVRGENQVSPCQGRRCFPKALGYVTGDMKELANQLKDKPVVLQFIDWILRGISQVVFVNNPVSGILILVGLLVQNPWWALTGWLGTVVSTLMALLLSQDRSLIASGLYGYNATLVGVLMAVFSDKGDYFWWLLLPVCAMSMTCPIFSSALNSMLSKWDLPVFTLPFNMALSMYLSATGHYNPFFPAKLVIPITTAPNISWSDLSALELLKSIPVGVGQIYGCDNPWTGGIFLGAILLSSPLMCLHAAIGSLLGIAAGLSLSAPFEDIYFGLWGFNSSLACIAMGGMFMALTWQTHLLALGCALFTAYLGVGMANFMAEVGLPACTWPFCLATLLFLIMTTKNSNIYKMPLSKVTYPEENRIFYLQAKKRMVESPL
Excerpt: Vigorous mixing was achieved by repeated pipetting.

[2] = target: T2, rat UT-A1 (Rattus norvegicus, UniProt Q62668); assay: UT-A1-facilitated urea flux across MDCK-UT-A1 cell layers; assay type: cell-based; conditions: for inhibition of rat UT-A1: 25 μM
T2 construct: expressed in transfected cells; host or cells: MDCK cells (gift of Dr. Jeffrey Sands, Emory University)
T2 sequence (Q62668 1-929): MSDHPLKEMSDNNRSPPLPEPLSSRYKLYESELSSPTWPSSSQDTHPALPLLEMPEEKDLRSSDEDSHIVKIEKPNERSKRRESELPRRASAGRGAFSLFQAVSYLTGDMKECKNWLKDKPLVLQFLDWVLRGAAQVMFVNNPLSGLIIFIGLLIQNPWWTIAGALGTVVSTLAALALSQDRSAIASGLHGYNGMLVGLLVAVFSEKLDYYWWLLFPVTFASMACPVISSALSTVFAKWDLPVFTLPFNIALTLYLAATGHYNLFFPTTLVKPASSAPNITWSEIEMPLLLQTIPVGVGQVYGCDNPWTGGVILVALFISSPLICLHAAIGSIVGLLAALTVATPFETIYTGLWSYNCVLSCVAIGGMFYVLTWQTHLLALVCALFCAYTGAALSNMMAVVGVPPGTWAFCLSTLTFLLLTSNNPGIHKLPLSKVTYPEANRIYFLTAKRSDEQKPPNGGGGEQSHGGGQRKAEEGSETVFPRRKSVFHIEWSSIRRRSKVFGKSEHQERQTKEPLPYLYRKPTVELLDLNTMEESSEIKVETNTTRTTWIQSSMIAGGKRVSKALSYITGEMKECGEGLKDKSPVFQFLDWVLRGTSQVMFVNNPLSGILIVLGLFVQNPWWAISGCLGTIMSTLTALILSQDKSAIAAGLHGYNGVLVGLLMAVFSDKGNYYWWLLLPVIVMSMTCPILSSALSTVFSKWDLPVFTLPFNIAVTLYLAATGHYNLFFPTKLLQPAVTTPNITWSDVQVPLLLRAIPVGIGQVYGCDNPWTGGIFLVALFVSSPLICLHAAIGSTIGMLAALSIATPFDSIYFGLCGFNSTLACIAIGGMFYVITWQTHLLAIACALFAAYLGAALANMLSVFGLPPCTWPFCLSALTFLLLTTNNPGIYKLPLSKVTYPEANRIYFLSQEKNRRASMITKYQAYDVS
Procedure: Concentration-inhibition studies were performed to study the effect of the active mouse UT-B inhibitors on urea transport by UT-A. The amino acid sequences of UT-B and UT-A urea transporter isoforms share significant similarity. The cells used in these studies were MDCK cells that expressed rat UT-A1. MDCK-UT-A1-expressing cells were grown on collagen-coated porous filters until they were electrically tight, at which point 15 mM urea was introduced into buffer bathing the basolateral cell surface.
MDCK cells stably transfected with rat UT-A1 (MDCK-UT-A1) (Fröhlich et al., Am J Physiol. in press; Fröhlich et al., Am. J. Physiol. Cell Physiol. 286:C1264-70 (2004). Epub on Jan. 28, 2004) were generously provided by Dr. Jeffrey Sands (Emory University School of Medicine, Atlanta, Ga.). Cells were grown in Dulbecco's Modified Eagle Medium (DMEM) with bicarbonate and supplemented with 10% fetal bovine serum (FBS), 25 mM HEPES buffer, penicillin G (100 U/mL), streptomycin (100 μg/mL) and hygromycin (500 μg/mL). For determining urea flux, cells were grown on 12-mm collagen-coated TRANSWELL inserts (0.4 μm pore size; Costar) as described (Fröhlich et al., Am J Physiol. in press; Fröhlich et al., 2004, supra). The TRANSWELL inserts were incubated in hygromycin-free medium for 1 hr in a 5% CO2 tissue culture incubator (37° C.), and then 2×10^5 cells/cm^2 were loaded onto each insert. Cells were used after culturing the cells for 4 days in hygromycin-free medium, at which time they formed tight monolayers (transepithelial resistance 500-600 Ω·cm^2).
UT-A1-facilitated urea flux in the basolateral-to-apical direction across unstimulated and forskolin-stimulated MDCK-UT-A1 cell layers was measured in response to a 15-mM urea gradient. Experiments were carried out in 12-well plates in which PBS, containing either DMSO vehicle or forskolin, with or without UT-B inhibitor, added to both the apical-facing (0.2 mL) and basal-facing (1 mL) surfaces of cells on the porous filters. Cultures were incubated in the absence of urea for 30 min at 37° C. Then, the basal-facing solution was replaced with PBS (containing same components) with 15 mM urea. Five μL samples of apical fluid were collected at specified times during incubation at 37° C., and urea concentration was determined using a commercial kit based on chromogenic urea complexation at 520-nm wavelength (Quantichrom™ Urea Assay Kit, BioAssay Systems, Hayward, Calif.). Forskolin (10 μM), with or without UT-B transport inhibitors, was added from 1000× DMSO stock solutions (0.2% final DMSO content). Inhibition of UT-A1-mediated transport was defined as % inhibition=100% (Aforsk−Atest)/(Aforsk−Aphlor). Aforsk, and Aphlor were averaged absorbance values (at 520 nm) for cultures treated with forskolin and forskolin+phloretin, respectively, and Atest were values from cultures treated with forskolin+test compound.

[3] = tested on: RBCs from wild-type mice; assay: Osmotic water permeability, RBCs from wild-type mice; assay type: cell-based, mouse
Procedure: FIGS. 8A-B illustrate UT-B-facilitated water transport by ‘chemical UT-B knock-out’. Osmotic water permeability was measured from the time course of RBC volume in response to a 250-mM inwardly directed sucrose gradient. FIG. 8A presents representative traces of mouse RBC water permeability performed at 10° C., with genotypes and conditions indicated. Inhibitors ureainh-201 and ureainh-302 were used at 25 μM. FIG. 8B presents osmotic water permeability coefficients (Pf) from experiments as illustrated in FIG. 8A (±SE, 3-7 curves per group of RBCs pooled from 4 mice per genotype). *, P<0.01 compared with no inhibitor; #, P<0.01 compared with wild-type (no inhibitor).
RBC urea and water permeabilities were assayed by stopped-flow light scattering using a Hi-Tech Sf-51 instrument (Wiltshire, UK). For measurement of urea permeability, dilutions of whole blood (human or mouse; see Example 1) in PBS (hematocrit: approximately 0.5%) were incubated with test compounds for 5 min and then subjected to a 250-mM inwardly directed gradient of urea. After an initial osmotic shrinking phase, the kinetics of increasing cell volume caused by urea influx were measured as the time-course of 90° scattered light intensity at 530 nm, with increasing cell volume resulting in reduced scattered light intensity. As a positive control, 0.7 mM phloretin was added to the RBC suspension prior to stopped-flow experiments. Measurements of water permeability were carried out similarly, with sucrose (cell-impermeant) used instead of urea to establish a 250-mM osmotic gradient. As a positive control, HgCl2 (0.3 mM) was added to the RBC suspension prior to stopped-flow measurements. Osmotic water permeability coefficients (Pf) were computed from light scattering data as described (van Hoek et al., J Biol Chem. 267:18267-69 (1992)).
This example describes chemical knock-out of UT-B by UT-B inhibitors in RBCs and the effect on UT-B-facilitated Water transport. […] Osmotic water permeability was measured by stopped-flow light scattering in RBCs from wild-type and AQP1-null mice as shown in FIG. 8A. […] AQP1-null RBCs had greater than 5-fold reduced Pf compared to wild-type RBCs.

[4] = tested on: UT; conditions: non-specific membrane intercalating agent; cited from earlier work
[5] = Table 2, read-out: EC50 (μM), UT-B inhibitory potency
[6] = lysis assay, FIG. 5B, read-out: apparent EC50

EC50 [1, 5] [µM]	SMILES	further results
10	O=S(=O)(Nc1ccc2c(c1)OCCO2)c1ccc2ccccc2c1 [ureainh-213, N-(2,3-dihydrobenzo[b][1,4]dioxin-6-yl)naphthalene-2-sulfonamide]	–
–	O=C(CCc1ccc(O)cc1)c1c(O)cc(O)cc1O [phloretin, reference compound]	UT-A1-facilitated urea transport ([2]; phloretin 0.7 mM, forskolin-stimulated): inhibited; reduction in Pf ([3]; 0.7 mM): small but significant reduction; effect on water transport ([3]; inhibitors 25 μM, phloretin 0.7 mM, 10° C.): little effect on water transport; concentration exhibiting activity [4]: > 0.5 mM
2	NC(=O)c1ccc(S(=O)(=O)Nc2ccc3c(c2)OCCO3)cc1 [ureainh-207, 4-(N-(2,3-dihydrobenzo [b][1,4]dioxin-6-yl)sulfamoyl)benzamide]	–
–	COc1cc(OC)cc(S(=O)(=O)Nc2cc(OC)ccc2OC)c1 [ureainh-201, N-(2,5-dimethoxyphenyl)-3,5-dimethoxybenzene sulfonamide]	inhibition of rat UT-A1 [2]: Neither ureainh-201 at 25 μM nor ureainh-404 at 25 μM significantly inhibited; EC50 [1, 6]: 0.3 µM
8	O=S(=O)(Nc1ccc2c(c1)OCCO2)c1cccc(Br)c1 [ureainh-211, 3-bromo-N-(2,3-dihydrobenzo[b][1,4]dioxin-6-y])benzenesulfonamide]	–
6	CC(=O)c1cccc(S(=O)(=O)Nc2ccc3c(c2)OCCO3)c1 [ureainh-210, 3-acetyl-N-(2,3-dihydrobenzo [b][1,4]dioxin-6-yl) Benzenesulfonamide]	–
10	Cc1ccc(S(=O)(=O)Nc2ccc3c(c2)OCCO3)cc1C [ureainh-212, N-(2,3-dihydrobenzo[b][1,4]dioxin-6-yl)-3,4-dimethylbenzenesulfonamide]	–
0.7	COc1ccc(OC)c(NS(=O)(=O)c2cccc(Br)c2)c1 [ureainh-203, 3-bromo-N-(2,5-dimethoxyphenyl) benzenesulfonamide]	–
–	CCn1c(NCc2cc(Br)ccc2O)nc2ccccc21 [ureainh-404]	inhibition of rat UT-A1 [2]: Neither ureainh-201 at 25 μM nor ureainh-404 at 25 μM significantly inhibited; EC50 [1, 6]: 0.4 µM
0.4	COc1ccc(OC)c(NS(=O)(=O)c2ccc(Br)cc2)c1 [ureainh-202, 4-bromo-N-(2,5-dimethoxyphenyl) benzenesulfonamide]	–
6	COc1cccc(S(=O)(=O)Nc2ccc3c(c2)OCCO3)c1 [ureainh-209, N-(2,3-dihydrobenzo [b][1,4]dioxin-6-yl)-3-Methoxybenzenesulfonamide]	–
4	Cc1cc(C)cc(S(=O)(=O)Nc2ccc3c(c2)OCCO3)c1 [ureainh-208, N-(2,3-dihydrobenzo [b][1,4]dioxin-6-yl)-3,5-dimethylbenzenesulfonamide]	–
4	Cn1c(=O)oc2cc(NS(=O)(=O)c3cccc(C(F)(F)F)c3)ccc21 [ureainh-217, N-(3-methyl-2-oxo-2,3-dihydrobenzo[d]oxazol-6-yl)-3-(trifluoromethyl) Benzenesulfonamide]	–
